In PubChem BioAssay AID2060882 (Molecular Pharmacology Branch, DTP, NCI, 2025):

Test system: 898857-211-R-J1-PDC complex spheroids, growth % test/control
Test: Anticancer human tumor 898857-211-R-J1-PDC patient-derived melanoma cell line growth inhibition [RAS]
Settings: for viability, T/C: stronger effect = lower value
Method in brief: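 Tumour cells grown as complex spheroids with HUVEC endothelial cells and mesenchymal stem cells, treated with RAS pathway inhibitor combinations. Each agent spans half-log steps from near clinical Cmax, or 10 microM where Cmax is unknown.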

[1] = curve of first compound, second compound 0.0316 µM
[2] = curve of first compound, second compound 0.1 µM
[3] = curve of first compound, second compound 0.316 µM
[4] = curve of first compound, second compound 1 µM
[5] = second compound 0.0316 µM, first compound 0.0316 µM
[6] = second compound 0.0316 µM, first compound 0.1 µM
[7] = second compound 0.0316 µM, first compound 0.316 µM
[8] = second compound 0.0316 µM, first compound 1 µM
[9] = second compound 0.1 µM, first compound 0.0316 µM
[10] = second compound 0.1 µM, first compound 0.1 µM
[11] = second compound 0.1 µM, first compound 0.316 µM
[12] = second compound 0.1 µM, first compound 1 µM
[13] = second compound 0.316 µM, first compound 0.0316 µM
[14] = second compound 0.316 µM, first compound 0.1 µM
[15] = second compound 0.316 µM, first compound 0.316 µM
[16] = second compound 0.316 µM, first compound 1 µM
[17] = second compound 1 µM, first compound 0.0316 µM
[18] = second compound 1 µM, first compound 0.1 µM
[19] = second compound 1 µM, first compound 0.316 µM
[20] = second compound 1 µM, first compound 1 µM
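Also: spheroids exposed to compound for seven days before readout.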
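For viability, T/C in this document: 100% = DMSO vehicle control wells.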

NC1c2ccccc2OC12CCN(c1cnc3c(N4CCCc5ncccc54)n[nH]c3n1)CC2 (stereo unspecified) + C#Cc1c(F)ccc2cc(O)cc(-c3ncc4c(N5CC6CCC(C5)N6)nc(OCC56CCCN5CC(F)C6)nc4c3F)c12
IC50 [1]: > 10000 nM
IC50 [2]: > 10000 nM
IC50 [3]: > 10000 nM
IC50 [4]: > 10000 nM
IC50 (curve of first compound, second compound 3.16 µM): > 10000 nM
IC50 (curve of first compound, second compound 10 µM): 35.7 nM
viability, T/C [5]: 95.6%
viability, T/C [6]: 90.5%
viability, T/C [7]: 90.5%
viability, T/C [8]: 88.5%
viability, T/C (second compound 0.0316 µM, first compound 3.16 µM): 91.5%
viability, T/C (second compound 0.0316 µM, first compound 10 µM): 74.9%
viability, T/C [9]: 91.8%
viability, T/C [10]: 89.3%
viability, T/C [11]: 103%
viability, T/C [12]: 91.7%
viability, T/C (second compound 0.1 µM, first compound 3.16 µM): 87.3%
viability, T/C (second compound 0.1 µM, first compound 10 µM): 74.4%
viability, T/C [13]: 99.5%
viability, T/C [14]: 98%
viability, T/C [15]: 94%
viability, T/C [16]: 88.1%
viability, T/C (second compound 0.316 µM, first compound 3.16 µM): 88.7%
viability, T/C (second compound 0.316 µM, first compound 10 µM): 77.1%
viability, T/C [17]: 109%
viability, T/C [18]: 105%
viability, T/C [19]: 100%
viability, T/C [20]: 91.5%
viability, T/C (second compound 1 µM, first compound 3.16 µM): 103%
viability, T/C (second compound 1 µM, first compound 10 µM): 76%
viability, T/C (second compound 3.16 µM, first compound 0.0316 µM): 102%
viability, T/C (second compound 3.16 µM, first compound 0.1 µM): 93.7%
viability, T/C (second compound 3.16 µM, first compound 0.316 µM): 109%
viability, T/C (second compound 3.16 µM, first compound 1 µM): 99.5%
viability, T/C (second compound 3.16 µM, first compound 3.16 µM): 95.9%
viability, T/C (second compound 3.16 µM, first compound 10 µM): 50.4%
viability, T/C (second compound 10 µM, first compound 0.0316 µM): 49%
viability, T/C (second compound 10 µM, first compound 0.1 µM): 48%
viability, T/C (second compound 10 µM, first compound 0.316 µM): 25.5%
viability, T/C (second compound 10 µM, first compound 1 µM): 22.5%
viability, T/C (second compound 10 µM, first compound 3.16 µM): 9.18%
viability, T/C (second compound 10 µM, first compound 10 µM): 2.12%

CCN1CCN(Cc2ccc(Nc3ncc(F)c(-c4cc(F)c5nc(C)n(C(C)C)c5c4)n3)nc2)CC1 + C=CC(=O)N1CCN(c2nc(OCC3CCCN3C)nc3c(F)c(-c4nc(N)cc(C)c4C(F)(F)F)c(Cl)cc23)C(C)C1
IC50 (curve of first compound, second compound 0.00316 µM): 366 nM
IC50 (curve of first compound, second compound 0.01 µM): 313 nM
IC50 [1]: 377 nM
IC50 [2]: 490 nM
IC50 [3]: > 1000 nM
IC50 [4]: 309 nM
viability, T/C (second compound 0.00316 µM, first compound 0.00316 µM): 106%
viability, T/C (second compound 0.00316 µM, first compound 0.01 µM): 106%
viability, T/C (second compound 0.00316 µM, first compound 0.0316 µM): 95.4%
viability, T/C (second compound 0.00316 µM, first compound 0.1 µM): 72.2%
viability, T/C (second compound 0.00316 µM, first compound 0.316 µM): 52.4%
viability, T/C (second compound 0.00316 µM, first compound 1 µM): 41.2%
viability, T/C (second compound 0.01 µM, first compound 0.00316 µM): 101%
viability, T/C (second compound 0.01 µM, first compound 0.01 µM): 106%
viability, T/C (second compound 0.01 µM, first compound 0.0316 µM): 86.6%
viability, T/C (second compound 0.01 µM, first compound 0.1 µM): 80.2%
viability, T/C (second compound 0.01 µM, first compound 0.316 µM): 45.7%
viability, T/C (second compound 0.01 µM, first compound 1 µM): 40.2%
viability, T/C (second compound 0.0316 µM, first compound 0.00316 µM): 121%
viability, T/C (second compound 0.0316 µM, first compound 0.01 µM): 102%
viability, T/C [5]: 83.4%
viability, T/C [6]: 77%
viability, T/C [7]: 45.6%
viability, T/C [8]: 39.2%
viability, T/C (second compound 0.1 µM, first compound 0.00316 µM): 118%
viability, T/C (second compound 0.1 µM, first compound 0.01 µM): 96.4%
viability, T/C [9]: 98.2%
viability, T/C [10]: 79.2%
viability, T/C [11]: 56.4%
viability, T/C [12]: 36.3%
viability, T/C (second compound 0.316 µM, first compound 0.00316 µM): 112%
viability, T/C (second compound 0.316 µM, first compound 0.01 µM): 117%
viability, T/C [13]: 91.8%
viability, T/C [14]: 64.8%
viability, T/C [15]: 59%
viability, T/C [16]: 50.9%
viability, T/C (second compound 1 µM, first compound 0.00316 µM): 122%
viability, T/C (second compound 1 µM, first compound 0.01 µM): 114%
viability, T/C [17]: 102%
viability, T/C [18]: 67.4%
viability, T/C [19]: 53.8%
viability, T/C [20]: 38%

C=CC(=O)N1CCN(c2nc(OCC3CCCN3C)nc3c(F)c(-c4nc(N)cc(C)c4C(F)(F)F)c(Cl)cc23)C(C)C1 (stereo unspecified)
viability, T/C (compound 0.00316 µM, compound 0.0316 µM): 121%
viability, T/C (compound 0.00316 µM, compound 0.1 µM): 105%
viability, T/C (compound 0.00316 µM, compound 0.316 µM): 117%
viability, T/C (compound 0.00316 µM, compound 1 µM): 124%
viability, T/C (compound 0.00316 µM): 110% [middle of 11 runs]
viability, T/C (compound 0.01 µM, compound 0.00316 µM): 98.1%
viability, T/C (compound 0.01 µM, compound 0.0316 µM): 108%
viability, T/C (compound 0.01 µM, compound 0.1 µM): 112%
viability, T/C (compound 0.01 µM, compound 0.316 µM): 116%
viability, T/C (compound 0.01 µM, compound 1 µM): 127%
viability, T/C (compound 0.01 µM): 108% [middle of 12 runs]
viability, T/C (compound 0.0316 µM, compound 0.00316 µM): 102%
viability, T/C (compound 0.0316 µM, compound 0.01 µM): 108%
viability, T/C (compound 0.0316 µM, compound 0.1 µM): 103%
viability, T/C (compound 0.0316 µM, compound 0.316 µM): 115%
viability, T/C (compound 0.0316 µM, compound 1 µM): 122%
viability, T/C (compound 0.0316 µM): 112% [middle of 12 runs]
viability, T/C (compound 0.1 µM, compound 0.00316 µM): 109%
viability, T/C (compound 0.1 µM, compound 0.01 µM): 103%
viability, T/C (compound 0.1 µM, compound 0.0316 µM): 122%
viability, T/C (compound 0.1 µM, compound 0.316 µM): 118%
viability, T/C (compound 0.1 µM, compound 1 µM): 127%
viability, T/C (compound 0.1 µM): 114% [middle of 12 runs]
viability, T/C (compound 0.316 µM, compound 0.00316 µM): 125%
viability, T/C (compound 0.316 µM, compound 0.01 µM): 121%
viability, T/C (compound 0.316 µM, compound 0.0316 µM): 119%
viability, T/C (compound 0.316 µM, compound 0.1 µM): 125%
viability, T/C (compound 0.316 µM, compound 1 µM): 127%
viability, T/C (compound 0.316 µM): 115% [middle of 12 runs]
viability, T/C (compound 1 µM, compound 0.00316 µM): 115%
viability, T/C (compound 1 µM, compound 0.01 µM): 126%
viability, T/C (compound 1 µM, compound 0.0316 µM): 123%
viability, T/C (compound 1 µM, compound 0.1 µM): 112%
viability, T/C (compound 1 µM, compound 0.316 µM): 119%
viability, T/C (compound 1 µM): 116% [middle of 12 runs]
IC50 (compound alone, run of 09/09/2024): > 1000 nM
IC50 (curve of compound): > 1000 nM
